Test results: patent publication US20140018424A1, “PREVENTIVE EFFECT OF CITRULLINE ON THE SPONTANEOUS DEVELOPMENT OF TUMORS” (UNIVERSITE PARIS DESCARTES, priority 2011, published 2014)

What was measured:
Format in all cases: in vivo, male Sprague-Dawley rats
[1] = Body weight of aged rats before and after 12 weeks of supplementation
[2] = tested on: tumours; assay: Incidence of tumours after euthanasia in aged rats; conditions: after euthanasia at 12 weeks; NEAA vs CIT p<0.05
Method: (§1) Thirty-nine male Sprague-Dawley rats aged 20 months and free of tumours (Charles River, L'Arbresle, France) are used. They are raised individually in cages, at a temperature of 20-23° C., subjected to a cycle of 12 hours of light alternating with 12 hours of darkness. They have free access to water. For the acclimatization period, all the rats are fed a standard diet (59% carbohydrates, 3% lipids, 17% proteins and 21% fibres) ad libitum (UAR of 0.4 Dietex, Villemoisson-sur-Orge, France) for 2 weeks. The animals are cared for in accordance with French regulations on the protection of animals used for experimental and scientific purposes (D 2001-486) and with the Regulations of the European Community (Official Journal of the European Community, L538 12:18:1986).
(§2) After the acclimatization period, the rats are randomly divided into 2 groups.
(§3) In the “citrulline” group (CIT, n=19), the rats are fed ad libitum for 12 weeks with a citrulline-based supplement (1 g.kg^−1.day^−1 of citrulline) mixed with their standard diet. The dose of citrulline is calculated by extrapolation of the doses used in humans, taking into account the fact that the metabolic rate and nitrogen requirements are 10 times greater in rodents than those measured in humans and very close to the dose of arginine administered to rats for 12 weeks by Jobgen W. et al. (J Nutr 2009;139:230-7). […]

[3] = tested on: polyamines; assay: Level of polyamines in liver, jejunum and ileum of aged rats
Method: as §1, §2
In the “citrulline” group (CIT, n=19), the rats are fed ad libitum for 12 weeks with a citrulline-based supplement (1 g.kg^−1.day^−1 of citrulline) mixed with their standard diet. The dose of citrulline is calculated by extrapolation of the doses used in humans, taking into account the fact that the metabolic rate and nitrogen requirements are 10 times greater in rodents than those measured in humans and very close to the dose of arginine administered to rats for 12 weeks by Jobgen W. et al. (J Nutr 2009;139:230-7). This dose corresponds to approximately 9% of the nitrogen intake, i.e. approximately 7g/day in the healthy adult volunteer.
In the “non-essential amino acids” group (NEAA, n=20), the rats are fed ad libitum for 12 weeks with a standard food rendered isonitrogenous with respect to the citrulline group by the addition of non-essential amino acids: […], serine, alanine and glycine in an equimolar ratio.
The rats are euthanized in the post-absorptive state after treatment for 12 weeks. The statistical studies are carried out using Statview® software

[4] = tested on: aged healthy rats; assay: Mortality over 12 weeks in aged healthy rats fed supplemented diet; conditions: rats aged 20 months, supplemented diet ad libitum for 12 weeks; NEAA vs CIT p<0.05
Method: as §1, §2, §3

NC(=O)NCCCC(N)C(=O)O (stereo not drawn) [CIT, 2-amino-5-(carbamoylamino)pentanoic acid]
effect of supplementation on body weight ([1]; 12 weeks, 1 g.kg^-1.day^-1 in the diet): does not affect the body weight
Final body weight ([1]; after the 12-week supplementation, NEAA vs CIT N.S): 630 ± 13
Initial body weight ([1]; before the 12-week supplementation, NEAA vs CIT N.S): 669 ± 16
incidence of tumours (rats with tumours/rats assessed) [2]: 0/19
effect of supplementation on putrescine ([3]; 12 weeks of supplementation): significant increase
Ileum putrescine ([3]; after 12 weeks, p 0.028): 79.8 ± 25
Liver putrescine ([3]; after 12 weeks, p 0.034): 17.1 ± 14.5
Ileum spermidine ([3]; after 12 weeks, p NS): 374 ± 70
Ileum spermine ([3]; after 12 weeks, p NS): 203 ± 43
Jejunum putrescine ([3]; after 12 weeks, p NS): 82.7 ± 36
Jejunum spermidine ([3]; after 12 weeks, p NS): 478 ± 200
Jejunum spermine ([3]; after 12 weeks, p NS): 297 ± 88
Liver spermidine ([3]; after 12 weeks, p NS): 372 ± 90
Liver spermine ([3]; after 12 weeks, p NS): 557 ± 245
mortality over 12 weeks (dead rats/rats in group) [4]: 0/19
